Source: patent publication US7517907B2, “Pharmaceutical/cosmetic compositions comprising a novel RARbeta receptor-activating ligand” (Galderma Research & Development, priority 2003, dated 2009)

How the values were obtained:
[1] = test system: RARbeta; experiment: Transactivation assay (luciferase reporter, HeLa stable transfectants), RARbeta; type: cell-based, human; settings: RARbeta Kdapp to RARalpha or RARgamma Kdapp
From the text: (§1) The compounds according to the invention have activating properties on RARbeta-type receptors. This RARbeta receptor-activating activity can in particular be measured in a transactivation assay by means of the dissocation constant Kdapp (apparent), the AC50 (concentration giving 50% of the activity of the reference molecule) and also by means of the % activation.
(§2) The activation of receptors with an agonist (activator) in HeLa cells leads to the expression of a reporter gene, luciferase, which, in the presence of a substrate, generates light. The activation of the receptors can thus be measured by quantifying the luminescence produced after incubating the cells in the presence of a reference antagonist. Activating products will displace the antagonist from its site, thus allowing activation of the receptor. The activity is measured by quantifying the increase in light produced. This measurement makes it possible to determine the activating activity of the compound according to the invention.
(§3) In this study, a constant is determined which represents the affinity of the molecule for the receptor. Since this value can fluctuate depending on the basal activity and the expression of the receptor, it is referred to as the Kd apparent (Kdapp).
(§4) To determine this constant, “crossed curves” of the test product against a reference antagonist, otherwise referred to as reference ligand, 4-(5,5-dimethyl-8-p-tolyl-5,6-dihydronaphthalen-2-ylethynyl)benzoic acid, are realized in 96-well plates. The test product is used at 10 concentrations and the reference antagonist at 7 concentrations. In each, the cells are in contact with a concentration of the test product and with a concentration of the reference antagonist, 4-(5,5-dimethyl-8-p-tolyl-5,6-dihydronaphthalen-2-ylethynyl)benzoic acid. […]
(§5) These crossed curves make it possible to determine the AC50 values (concentration at which 50% activation is observed) for the reference ligand at various concentrations of test product. These AC50 values are used to calculate the Schild regression by plotting a straight line corresponding to the Schild equation (“quantitation in receptor pharmacology” Terry P. Kenakin, Receptors and Channels, 2001, 7, 371-385).
(§6) In the case of an agonist, an AC50 value (concentration giving 50% activity) is calculated by plotting the curve of the product at the concentration of the reference ligand that gives 80% activation. The % activation which corresponds to the maximum level of activity obtained is also measured. […]
(§7) The culture medium is removed by turning the plates over, and 100 μl of a 1:1 PBS/luciferin mixture are added to each well. After 5 minutes, the plates are read using a luminescence reader.

[2] = molecular target: T1, RARbeta (Homo sapiens, UniProt P10826); experiment: as above; type: cell-based
T1 construct: RARbeta Kdapp; RARbeta AC50; other: maximum level of activity obtained, relative to 100% control total agonist
T1 sequence (P10826 183-417 limits assumed): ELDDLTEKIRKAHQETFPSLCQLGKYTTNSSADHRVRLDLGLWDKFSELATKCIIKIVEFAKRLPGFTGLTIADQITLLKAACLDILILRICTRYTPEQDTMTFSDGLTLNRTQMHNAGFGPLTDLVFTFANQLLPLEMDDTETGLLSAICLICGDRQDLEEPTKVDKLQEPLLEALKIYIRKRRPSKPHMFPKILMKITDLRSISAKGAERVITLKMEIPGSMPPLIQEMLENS
From the text: as §1, §2, §3, §4, §5, §6, §7

[3] = molecular target: T2, RARgamma (Homo sapiens, UniProt P13631); experiment: Transactivation assay (luciferase reporter, HeLa stable transfectants), RARgamma; type: cell-based
T2 sequence (P13631 185-419 limits assumed): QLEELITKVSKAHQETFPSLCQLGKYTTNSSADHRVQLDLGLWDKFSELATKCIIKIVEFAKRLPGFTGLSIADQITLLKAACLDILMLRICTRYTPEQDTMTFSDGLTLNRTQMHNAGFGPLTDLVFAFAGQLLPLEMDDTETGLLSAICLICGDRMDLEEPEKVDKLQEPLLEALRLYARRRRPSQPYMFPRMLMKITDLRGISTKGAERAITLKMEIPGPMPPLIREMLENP
From the text: [The procedure below names another target; the source lists this target under the same test.] as §1, §2
(§8) In this study, a constant is determined which represents the affinity of the molecule for the receptor. […]
as §5, §6, §7

[4] = molecular target: T3, RARalpha (Homo sapiens, UniProt P10276); experiment: Transactivation assay (luciferase reporter, HeLa stable transfectants), RARalpha; type: cell-based
T3 sequence (P10276 183-417 limits assumed): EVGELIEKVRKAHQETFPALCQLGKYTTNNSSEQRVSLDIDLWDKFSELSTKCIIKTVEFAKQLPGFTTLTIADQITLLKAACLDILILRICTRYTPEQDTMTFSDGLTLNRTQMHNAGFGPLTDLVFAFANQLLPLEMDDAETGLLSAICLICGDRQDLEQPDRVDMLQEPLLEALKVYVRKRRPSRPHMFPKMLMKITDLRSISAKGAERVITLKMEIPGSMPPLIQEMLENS
From the text: [The procedure below names another target; the source lists this target under the same test.] as §1, §2, §8, §5, §6, §7

[5] = concentration giving 50% activity, at the reference ligand concentration giving 80% activation, HeLa cells
[6] = maximum level of activity obtained, relative to 100% control total agonist

## CC1(C)OCC(COc2ccc(-c3ccc4cc(C(=O)O)ccc4c3)cc2C23CC4CC(CC(C4)C2)C3)O1 (stereo not shown) [Ex. 1, 6-[3-adamantan-1-yl-4-(2,2-dimethyl[1,3]dioxolan-4-ylmethoxy)phenyl]naphthalene-2-carboxylic acid]
[1]
  ratio of the Kdapp values R: 0.015
[2]; apparent Kd from Schild regression, crossed curves against reference antagonist, HeLa cells, read-out: RARbeta Kdapp
  Kd: 60 nM
[2]; [5]
  AC50: 12 nM
[2]; [6]
  RARbeta % activation: 100%
[3]; apparent Kd from Schild regression, crossed curves against reference antagonist, HeLa cells, read-out: RARgamma Kdapp
  Kd: 4000 nM
[3]; [5]
  AC50: 2000 nM
[3]; [6]
  RARgamma % activation: 40%
[4]; apparent Kd from Schild regression, crossed curves against reference antagonist, HeLa cells, read-out: RARalpha Kdapp
  Kd: 8000 nM
[4]; [5]
  AC50: 1800 nM
[4]; [6]
  RARalpha % activation: 20%
